Where two headings read alike, the source gives them in different places.
Experiments:
TRPML3 = molecular target: T1, TRPML3 (Homo sapiens, UniProt Q8TDD5); experiment: Fluorescent TRPML3 assay (performed as for TRPML1, substituting the TRPML3 subtype); format: cell-based
T1 construct: expressed in transfected cells
T1 sequence (Q8TDD5 1-553): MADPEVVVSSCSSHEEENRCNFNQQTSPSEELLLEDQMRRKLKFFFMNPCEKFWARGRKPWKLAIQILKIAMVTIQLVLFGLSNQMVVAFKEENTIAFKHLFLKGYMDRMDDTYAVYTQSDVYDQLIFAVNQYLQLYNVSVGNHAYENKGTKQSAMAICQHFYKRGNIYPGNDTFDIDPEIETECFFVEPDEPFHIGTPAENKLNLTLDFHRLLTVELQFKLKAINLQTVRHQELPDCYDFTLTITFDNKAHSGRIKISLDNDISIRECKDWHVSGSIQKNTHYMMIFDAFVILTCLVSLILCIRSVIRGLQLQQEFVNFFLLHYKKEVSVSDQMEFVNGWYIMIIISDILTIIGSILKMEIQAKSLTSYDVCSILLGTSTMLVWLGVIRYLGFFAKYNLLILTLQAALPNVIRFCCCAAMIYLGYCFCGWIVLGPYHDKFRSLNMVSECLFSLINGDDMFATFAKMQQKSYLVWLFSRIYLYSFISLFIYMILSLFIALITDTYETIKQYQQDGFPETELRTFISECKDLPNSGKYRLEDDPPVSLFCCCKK
Procedure: (§1) HEK-293 Trex cells were stably transfected with a construct consisting of the human coding sequence for TRPML1 cloned into the […] plasmid pCDNA5 T/O. Mutations were introduced into the TRPML1 sequence to facilitate expression on the cell surface (Silvia Vergarajauregui, Rosa Puertollano, Traffic. 2006 March; 7(3): 337-353). Briefly, the cells are cultured in 150 mm round tissue culture dishes containing 20 mL of media. The day before the assay the cells are rinsed with DPBS-Ca—Mg and then treated briefly with Trypsin-EDTA. The Trypsin-EDTA is diluted with growth media, and cells are counted. 38×10^6 cells are re-plated into 150 mm round tissue culture dishes in media containing 0.5 ug/mL doxycycline to induce expression of hTRPML1.
(§2) The day of the experiment cells are lifted from the plates as above and collected by centrifugation. The cells are then suspended in dye loading buffer consisting of Ringer's solution supplemented with 0.1% Pluronic Acid and 1 micromolar Fluo4-AM dye. Cells are loaded for ˜60 minutes in the dark with occasional mixing. The cells are collected by centrifugation, the loading media aspirated, and the cells resuspended in 25 mL Ringer's solution and incubated ˜60 minutes in the dark. The cells are again collected by centrifugation, rinsed in Ringer's Solution and resuspended to […] in modified Ringer's solution containing 10 mM calcium.
(§3) Compounds are dissolved to a concentration of 10 millimolar with DMSO. Compound plates are created by dispensing compounds into 384 well black wall clear bottom plates (Greiner 781091). Positive and negative controls are included on each plate. Typically, different amounts of each compound are tested ranging from 100 nanoMoles (20 micromolar final concentration) decreasing in half-log steps to 31 picoMoles (6 nanomolar final concentration). Each concentration is typically tested in triplicate.
(§4) 50 microliters of dye-loaded cells are dispensed into each well of the compound assay plate created above. The fluorescence in each well is then determined with an excitation wavelength of 480 nm and an emission wavelength of 540 nm using either a Molecular Devices SpectraMax multimode plate reader or a Hamamatsu FDSS/uCell plate imager.
(§5) The resulting fluorescence for each well is exported as an ascii file and loaded into our LIMS for analysis. The percent activity of each compound at each concentration is determined by comparison to the positive and negative control wells included in each plate.
TRPML2 and TRPML3 Assays Assays for TRPML2 and TRPML3 were performed as above for TRPML1, by substituting the appropriate TRPML2 or TRPML3 subtype for the TRPML1.
(§6) EC50 values were calculated using a non-linear regression of Prism. In the table, “A” indicates an EC50 of less than 100 nM, “B” indicates an EC50 range from 100 nM to 500 nM; “C” indicates an EC50 range from 500 nM to 2 μM; and “D” indicates an EC50 greater than 2 μM.

TRPML1 = TRPML1 (Homo sapiens, UniProt Q9GZU1); experiment: Fluorescent TRPML1 assay (Fluo4-AM calcium fluorescence in doxycycline-induced HEK-293 Trex cells); format: cell-based
Sequence of TRPML1 (Q9GZU1 whole entry L15A/L16A/L577A/L578A, form open): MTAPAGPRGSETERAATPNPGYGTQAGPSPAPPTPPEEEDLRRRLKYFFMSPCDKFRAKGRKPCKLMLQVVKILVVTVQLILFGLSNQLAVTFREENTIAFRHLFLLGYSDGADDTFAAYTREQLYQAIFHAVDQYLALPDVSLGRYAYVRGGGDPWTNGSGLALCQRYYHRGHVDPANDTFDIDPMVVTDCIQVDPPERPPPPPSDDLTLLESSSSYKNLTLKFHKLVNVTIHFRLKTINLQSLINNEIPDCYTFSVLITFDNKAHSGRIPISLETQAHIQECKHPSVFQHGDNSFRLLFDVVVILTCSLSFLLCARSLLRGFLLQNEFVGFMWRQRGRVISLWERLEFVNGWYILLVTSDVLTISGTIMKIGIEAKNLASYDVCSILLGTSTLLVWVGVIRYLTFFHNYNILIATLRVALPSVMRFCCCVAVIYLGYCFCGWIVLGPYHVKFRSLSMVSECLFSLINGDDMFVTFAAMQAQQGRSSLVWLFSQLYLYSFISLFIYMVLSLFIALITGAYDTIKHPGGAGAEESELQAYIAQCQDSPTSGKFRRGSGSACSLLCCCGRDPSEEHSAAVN
Procedure: as §1, §2, §3, §4, §5, §6

Row | SMILES | EC50 (TRPML3; fluorescent calcium assay) | EC50 (TRPML1; fluorescent calcium assay) | EC50 (TRPML3) | EC50 (TRPML1)
1 | CC(C)(OC(=O)N1CCN(c2ncnc3c2c(C2CC2)cn3-c2cc(C#N)ccn2)CC1)C(F)(F)F [Compound 385, 1,1,1-trifluoro-2-methylpropan-2-yl 4-(7-(4-cyanopyridin-2-yl)-5-cyclopropyl-7H-pyrrolo[2,3-d]pyrimidin-4-yl)piperazine-1-carboxylate] | 100 to 500 nM | 100 to 500 nM |  | 
2 | C[C@@H]1CN(c2ncnc3c2c(C(F)F)cn3-c2cc(C#N)ccn2)[C@@H](C)CN1C(=O)OC1(C)CC1 [Compound 613, 1-methylcyclopropyl (2R,5S)-4-(7-(4-cyanopyridin-2-yl)-5-(difluoromethyl)-7H-pyrrolo[2,3-d]pyrimidin-4-yl)-2,5-dimethylpiperazine-1-carboxylate] |  |  | < 100 nM | < 100 nM
3 | CC(C)(C)OC(=O)N1CCN(c2ncnc3c2c(C2CC2)cn3-c2cc(C#N)ccn2)CC12CC2 [Compound 396, tert-butyl 7-(7-(4-cyanopyridin-2-yl)-5-cyclopropyl-7H-pyrrolo[2,3-d]pyrimidin-4-yl)-4,7-diazaspiro[2.5]octane-4-carboxylate] | < 100 nM | 100 to 500 nM |  | 
4 | Cc1cn(-c2cncnc2)c2ncnc(N3CCN(C(=O)OC(C)(C)C)C[C@@H]3C)c12 [Compound 691, tert-butyl (S)-3-methyl-4-(5-methyl-7-(pyrimidin-5-yl)-7H-pyrrolo[2,3-d]pyrimidin-4-yl)piperazine-1-carboxylate] |  |  | 500 to 2000 nM | 500 to 2000 nM
5 | Cc1c(C(F)(F)F)c2c(N3C[C@@H](C)N(C(=O)OC(C)(C)C)C[C@@H]3C)ncnc2n1-c1cc(C#N)ccn1 [Compound 531, tert-butyl (2R,5S)-4-(7-(4-cyanopyridin-2-yl)-6-methyl-5-(trifluoromethyl)-7H-pyrrolo[2,3-d]pyrimidin-4-yl)-2,5-dimethylpiperazine-1-carboxylate] |  |  | 100 to 500 nM | 100 to 500 nM
6 | C[C@H]1CN(C(=O)OCC(F)(F)F)CCN1c1ncnc2c1c(-c1ccccn1)cn2-c1cc(C#N)ccn1 [Compound 372, 2,2,2-trifluoroethyl (S)-4-(7-(4-cyanopyridin-2-yl)-5-(pyridin-2-yl)-7H-pyrrolo[2,3-d]pyrimidin-4-yl)-3-methylpiperazine-1-carboxylate] | 100 to 500 nM | 100 to 500 nM |  | 
7 | C[C@H]1CCCN1c1cn(-c2cccc(Cl)c2)c2ncnc(N3CCN(C(=O)OC(C)(C)C)C[C@@H]3C)c12 [Compound 316, tert-butyl (S)-4-(7-(3-chlorophenyl)-5-((S)-2-methylpyrrolidin-1-yl)-7H-pyrrolo[2,3-d]pyrimidin-4-yl)-3-methylpiperazine-1-carboxylate] | < 100 nM | 500 to 2000 nM |  | 
8 | C[C@@H]1CN(c2ncnc3c2c(C(F)F)cn3C2CCC(C#N)C2)[C@@H](C)CN1C(=O)OC(C)(C)C (some centres unmarked) [Compound 634] |  |  | 500 to 2000 nM | 500 to 2000 nM
9 | CC(C)(C)OC(=O)N1CCN(c2ncnc3c2c(-c2ccccc2F)cn3-c2nccc(C#N)n2)CC1 [Compound 459] | < 100 nM | < 100 nM |  | 
10 | C[C@@H]1CN(C(=O)OC(C)(C)C)CCN1c1ncnc2c1c(C1CC1)cn2-c1cc(C#N)ccn1 [Compound 393, tert-butyl (R)-4-(7-(4-cyanopyridin-2-yl)-5-cyclopropyl-7H-pyrrolo [2,3-d]pyrimidin-4-yl)-3-methylpiperazine-1-carboxylate] | < 100 nM | < 100 nM |  | 
11 | CCOC(=O)N1CCN(c2ncnc3c2c(C2CC2)cn3-c2cncc(C)c2)[C@@H](C)C1 [Compound 153, ethyl (S)-4-(5-cyclopropyl-7-(5-methylpyridin-3-yl)-7H-pyrrolo[2,3-d]pyrimidin-4-yl)-3-methylpiperazine-1-carboxylate] | > 2000 nM | > 2000 nM |  | 
12 | C[C@@H]1CN(C(=O)OC(C)(C)C)CCN1c1ncnc2c1c(N1CCOCC1)cn2-c1cc(F)cc(F)c1 [Compound 227, tert-Butyl (R)-4-(7-(3,5-difluorophenyl)-5-morpholino-7H-pyrrolo[2,3-d]pyrimidin-4-yl)-3-methylpiperazine-1-carboxylate] | 100 to 500 nM | 500 to 2000 nM |  | 
13 | C[C@@H]1CN(c2ncnc3c2c(C(F)F)cn3C2CCCC2)[C@@H](C)CN1C(=O)OC(C)(C)C [Compound 628, tert-butyl (2R,5S)-4-(7-cyclopentyl-5-(difluoromethyl)-7H-pyrrolo[2,3-d]pyrimidin-4-yl)-2,5-dimethylpiperazine-1-carboxylate] |  |  | 500 to 2000 nM | 500 to 2000 nM
14 | C[C@@H]1CN(c2ncnc3c2c(C(F)(F)F)cn3[C@@H]2CCCOC2)[C@@H](C)CN1C(=O)OC(C)(C)C [Compound 632, tert-butyl (2R,5S)-2,5-dimethyl-4-(7-((R)-tetrahydro-2H-pyran-3-yl)-5-(trifluoromethyl)-7H-pyrrolo[2,3-d]pyrimidin-4-yl)piperazine-1-carboxylate] |  |  | > 2000 nM | 500 to 2000 nM
15 | C[C@H]1CN(C(=O)OC(C)(C)C)CCN1c1ncnc2c1c(C1CCOCC1)nn2-c1cccc(Cl)c1 [Compound 284, tert-butyl (S)-4-(1-(3-chlorophenyl)-3-(tetrahydro-2H-pyran-4-yl)-1H-pyrazolo[3,4-d]pyrimidin-4-yl)-3-methylpiperazine-1-carboxylate] |  | 500 to 2000 nM |  | 
16 | C[C@H]1CN(C(=O)OC(C)(C)C)CCN1c1ncnc2c1c(N1CCCC1)cn2-c1cccc(C#N)c1 [Compound 285, tert-butyl (S)-4-(7-(3-cyanophenyl)-5-(pyrrolidin-1-yl)-7H-pyrrolo[2,3-d]pyrimidin-4-yl)-3-methylpiperazine-1-carboxylate] |  | < 100 nM |  | 
17 | C[C@H]1CN(C(=O)OC(C)(C)C)CCN1c1ncnc2c1c(-c1cccnc1)cn2-c1cccc(OC(F)(F)F)c1 [Compound 281, tert-butyl-(S)-3-methyl-4-(5-(pyridin-3-yl)-7-(3-(trifluoromethoxy)phenyl)-7H-pyrrolo [2,3-d]pyrimidin-4-yl)piperazine-1-carboxylate] |  | < 100 nM |  | 
18 | C[C@H]1CN(C(=O)OC(C)(C)C)CCN1c1ncnc2c1c(-c1cnccn1)cn2-c1cccc(OC(F)(F)F)c1 [Compound 296, tert-butyl (S)-3-methyl-4-(5-(pyrazin-2-yl)-7-(3-(trifluoromethoxy)phenyl)-7H-pyrrolo[2,3-d]pyrimidin-4-yl)piperazine-1-carboxylate] |  | 100 to 500 nM |  | 
19 | COc1cc(F)cc(-n2cc(C3CC3)c3c(N4CCN(C(=O)OC(C)(C)C)C[C@@H]4C)ncnc32)c1 [Compound 288, tert-butyl (S)-4-(5-cyclopropyl-7-(3-fluoro-5-methoxyphenyl)-7H-pyrrolo[2,3-d]pyrimidin-4-yl)-3-methylpiperazine-1-carboxylate] |  | 100 to 500 nM |  | 
20 | C[C@H]1CN(C(=O)OC(C)(C)C)CCN1c1ncnc2c1c(N1CCCC1)cn2C1CCOCC1 [Compound 360, tert-butyl (S)-3-methyl-4-(5-(pyrrolidin-1-yl)-7-(tetrahydro-2H-pyran-4-yl)-7H-pyrrolo[2,3-d]pyrimidin-4-yl)piperazine-1-carboxylate] |  | 500 to 2000 nM |  | 
21 | C[C@H]1CN(C(=O)OC(C)(C)C)CCN1c1ncnc2c1c(-c1ccccn1)cn2-c1cccc(OC(F)(F)F)c1 [Compound 279, tert-butyl (S)-3-methyl-4-(5-(pyridin-2-yl)-7-(3-(trifluoromethoxy)phenyl)-7H-pyrrolo[2,3-d]pyrimidin-4-yl)piperazine-1-carboxylate] |  | 100 to 500 nM |  | 

Reference: US20250136606A1, “MODULATORS OF TRPML, THEIR COMPOSITIONS AND METHODS OF USE” (Caraway Therapeutics, Inc., priority 2021, published 2025)
